The record followed here is patent US20260265216A1, “NOVEL THIOREDOXIN REDUCTASE INHIBITORS” (GENEXPLAIN GMBH, priority 2021, published 2026).

Each structure is given as a SMILES string. Where a name gives a salt, the structure may show the parent alone.

For orientation: IC50 means the concentration that gives 50% inhibition. A high value points to weaker potency in that assay.

The subject of one data set is HCT116-Cas9. Nature of the data set: Growth suppression assay (resazurin). It is filed as cell-based. The note with it: 48 hours. The method, then:
(§1) Cells were grown in 96-well plates at a density of 3000 cells per well with or without doxycycline and treated with compounds. After 48 hours of incubation the proliferative cell reagent resazurin (Thermo Fisher Scientific) was added to the cells. The degree of resazurin reduction, which reflects cell viability, was measured by microplate reader by monitoring the absorbance at 570 nm and 600 nm, according to the manufacturer.
(§2) Two carcinoma cell lines, MCF7 (breast carcinoma) and HCT116 (colon carcinoma) grown in 96-well plates, were treated with increasing concentrations of the synthesized compounds, ranging from […]. After 48 hours of incubation the proliferative cell reagent resazurin was added to the cells. The degree of resazurin reduction, which reflects cell viability, was measured by microplate reader by monitoring the absorbance at 570 nm and 600 nm, according to the manufacturer and the IC50 was determined (Table 1).
A general note: Alamar Blue is a resazurin reagent that responds to reducing activity.

The next data set has as its system MCF7-Cas9. Nature of the data set: Growth suppression assay (resazurin). It is filed as cell-based. The note with it: 48 hours, hydrochloride. The method, then: as §1, §2
Another data set can be described thus: Solubility. It is filed as physicochemical. As to conditions: solvent in which soluble.

With `N#Cc1c(-c2ccncc2)[n+]([O-])c2cc(N3CCOCC3)c(F)cc2[n+]1[O-]` [1a*HCl, 7-Fluoro-6-(morpholin-4-yl)-3-(pyridin-4-yl)quinoxaline-2-carbonitrile-1,4-dioxide hydrochloride], the IC50 in the data set with HCT116-Cas9 (hydrochloride) was 9.3 µM; in the data set on MCF7-Cas9, > 10 µM. As to `N#Cc1c(-c2ccncc2)[n+]([O-])c2cc(F)c(N3CCOCC3)cc2[n+]1[O-]` [1b*MsOH, 6-Fluoro-7-(morpholin-4-yl)-3-(pyridin-4-yl)quinoxaline-2-carbonitrile-1,4-dioxide methanesulfonate], the IC50 in the data set with HCT116-Cas9 (methanesulfonate) came to 3.4 µM. Consider `N#Cc1c(-c2ccncc2)[n+]([O-])c2cc(N3CCOCC3)c(F)cc2[n+]1[O-]` [Compound 1a, 7-Fluoro-6-(morpholin-4-yl)-3-(pyridin-4-yl)quinoxaline-2-carbonitrile 1,4-dioxide], for which the Solubility result in “Solubility” was “Warm DMSO”.

For the compound `N#Cc1c(-c2ccncc2)[n+]([O-])c2cc(F)c(N3CCOCC3)cc2[n+]1[O-]` [Compound 1b, 6-Fluoro-7-(morpholin-4-yl)-3-(pyridin-4-yl)quinoxaline-2-carbonitrile-1,4-dioxide], in the data set “Solubility”, the Solubility result is recorded as “Warm DMSO”.

As for `N#Cc1c(-c2cccnc2)[n+]([O-])c2cc(N3CCOCC3)c(F)cc2[n+]1[O-]` [Compound 1c, 7-Fluoro-6-(morpholin-4-yl)-3-(pyridin-3-yl)quinoxaline-2-carbonitrile-1,4-dioxide], the Solubility entry in the data set “Solubility” was “Warm DMSO”.

For `N#Cc1c(-c2cccnc2)[n+]([O-])c2cc(F)c(N3CCOCC3)cc2[n+]1[O-]` [Compound 1d, 6-Fluoro-7-(morpholin-4-yl)-3-(pyridin-3-yl)quinoxaline-2-carbonitrile-1,4-dioxide], in the data set “Solubility”, the Solubility entry is “Warm DMSO”. Same read-out and setting: the same measure for `N#Cc1c(-c2cccnc2)[n+]([O-])c2cc(F)c(N3CCCC3)cc2[n+]1[O-]` [Compound 1f, 6-Fluoro-7-(pyrrolidin-1-yl)-3-(pyridin-3-yl)quinoxaline-2-carbonitrile-1,4-dioxide]: “Warm DMSO”. As for `N#Cc1c(-c2cccnc2)[n+]([O-])c2cc(F)c(N3CCCCC3)cc2[n+]1[O-]` [Compound 1g, 6-Fluoro-7-(piperidin-1-yl)-3-(pyridin-3-yl)quinoxaline-2-carbonitrile-1,4-dioxide], in the data set “Solubility”, the Solubility result was “Warm DMSO”.
